The record followed here is patent publication US11771671B2, “Use of (1S,3S)-3-amino-4-(difluoromethylidene) cyclopentane-1-carboxylic acid and (S)-3-amino-4-(difluoromethylenyl)cyclopent-1-ene-1-carboxylic acid in the treatment of tinnitus, acute sensorineural hearing loss, Meniere's disease, Tourette's syndrome, attention deficit hyperactivity disorder and …” (Ovid Therapeutics Inc., priority 2018, dated 2023).

In general, half-life refers to the time needed for the level to fall by half in the phase considered.

A short description of this data set: plasma pharmacokinetics. The format is in vivo.

Structures are written as SMILES.

`N[C@H]1C[C@@H](C(=O)O)CC1=C(F)F` [(1S,3S)-3-amino-4-(difluoromethylidene)cyclopentane-1-carboxylic acid]: where the note is “dose range of 5 mg-500 mg”, the AUCs dose proportionality result is reported as “greater than proportional increase” and the C. dose proportionality result is given as “increases in a dose proportional manner”. The half-life (plasma, read-out: plasma elimination half-life) lay within 4 to 6 h.
